PubChem BioAssay (NCI)
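48-hour exposure; five concentrations; linearly interpolated endpoints. TGI marks complete inhibition of growth.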

How the values were obtained:
Assay in all cases: NCI tumour cell line growth inhibition, 48 h
HOP-62 NSCLC = tested on: HOP-62 NSCLC
M14 melanoma = tested on: M14 melanoma
NCI-H23 lung = tested on: NCI-H23 lung
OVCAR-3 ovarian = tested on: OVCAR-3 ovarian
OVCAR-4 ovarian = tested on: OVCAR-4 ovarian
SF-268 CNS = tested on: SF-268 CNS
SR leukemia = tested on: SR leukemia
SW-620 colon = tested on: SW-620 colon
UACC-62 melanoma = tested on: UACC-62 melanoma
UO-31 renal = tested on: UO-31 renal

Row | Structure (SMILES) | TGI (HOP-62 NSCLC) | TGI (M14 melanoma) | TGI (NCI-H23 lung) | TGI (OVCAR-3 ovarian) | TGI (OVCAR-4 ovarian) | TGI (SF-268 CNS) | TGI (SR leukemia) | TGI (SW-620 colon) | TGI (UACC-62 melanoma) | TGI (UO-31 renal)
1 | NC1CNC(=O)c2c(Cl)sc(Cl)c21 (centres undefined) | > 100 µM | > 100 µM | > 100 µM | > 100 µM | > 100 µM | > 100 µM | > 100 µM | > 100 µM | > 100 µM | > 100 µM
2 | CCOn1c(C2(CC3CCN(C(=O)c4ccccc4)CC3)OCCO2)cc2ccccc21 | 28.3 µM | 33.6 µM | 40.6 µM | 30 µM | 29.9 µM | 35 µM | 22.5 µM | 35.7 µM | 23.4 µM | 26.9 µM
3 | Nc1ccc(S(=O)(=O)Nc2nc3ccccc3nc2N2CCCCC2)cc1 | > 100 µM | > 100 µM | > 100 µM | > 100 µM | 87.7 µM | > 100 µM | > 100 µM | > 100 µM | > 100 µM | 55.1 µM
4 | COc1c(C)c2nc3ccccc3[nH]c2c2c(=O)ccnc12 | > 100 µM | > 100 µM | > 100 µM | > 100 µM | > 100 µM | > 100 µM | > 100 µM | > 100 µM |  | > 100 µM
5 | CCOc1cc(-c2nc3ccccn3c2/N=C/c2cc(Br)ccc2O)ccc1O | 44.8 µM | > 100 µM | > 100 µM | 34 µM | 38.7 µM | > 100 µM | > 100 µM | > 100 µM | 57 µM | 84.6 µM
6 | N#Cc1cc2c(cc1Cl)Sc1nccn1S2(=O)=O | 10.8 µM | 4.02 µM | 3.35 µM | 2.13 µM | 22.1 µM | 13 µM | 3.54 µM | 14.4 µM | 7.32 µM | 10.7 µM
7 | CC1(CNCc2ccccc2)CC(CCc2ccccc2)N(C(=O)c2ccc([N+](=O)[O-])cc2)C1Cc1ccc(O)cc1 (centres undefined) | 31.1 µM | 28 µM | 23.5 µM | 24.6 µM | 28.2 µM | 27.6 µM | > 100 µM | 86 µM | 28.9 µM | 23.3 µM
8 | Cn1c2ccccc2n2c(=O)c3cc([N+](=O)[O-])ccc3c(C#N)c12 | > 100 µM | > 100 µM | > 100 µM | > 100 µM | > 100 µM | > 100 µM | > 100 µM | > 100 µM | > 100 µM | > 100 µM
9 | CCOC(=O)C(CC#Cc1ccc(C#CCC(NC(C)=O)C(=O)OCC)cc1)NC(C)=O (centres undefined) | > 100 µM | > 100 µM | > 100 µM | > 100 µM | > 100 µM | > 100 µM | > 100 µM | > 100 µM | > 100 µM | > 100 µM
10 | O=C1CSC(c2cccs2)N1c1nc2cc3sc(N4C(=O)CSC4c4cccs4)nc3cc2s1 (centres undefined) | > 50 µM | > 50 µM | > 50 µM | > 50 µM | > 50 µM | > 50 µM | > 50 µM | > 50 µM | > 50 µM | > 50 µM
11 | NC(N)=NS(=O)(=O)c1ccc(NC(=O)c2ccc3nc4ccccc4c(Nc4ccc(S(=O)(=O)N=C(N)N)cc4)c3c2)cc1 | > 100 µM | > 100 µM | > 100 µM | > 100 µM | > 100 µM | > 100 µM | > 100 µM | > 100 µM | > 100 µM | > 100 µM
12 | COc1ccc2cc(NC(=O)N/N=C\c3ccc(Cl)cc3)ccc2c1 | > 100 µM | > 100 µM | > 100 µM | > 100 µM | > 100 µM | > 100 µM | > 100 µM | > 100 µM | > 100 µM | > 100 µM
13 | CCNC(=O)C1CCCN1C(=O)C(CCCN=C(N)N)NC(=O)C(CC(C)C)NC(=O)C(Cc1c[nH]c2ccccc12)NC(=O)C(Cc1ccc(O)cc1)NC(=O)C(CO)NC(=O)C(Cc1c[nH]c2ccccc12)NC(=O)C(Cc1cnc[nH]1)NC(=O)C1CCC(=O)N1 (centres undefined) | > 100 µM | > 100 µM | > 100 µM | > 100 µM | > 100 µM | > 100 µM | > 100 µM | > 100 µM | > 100 µM | > 100 µM
14 | Brc1cc2nn(-c3ccccc3)nc2c2nonc12 | > 100 µM | > 100 µM | > 100 µM | > 100 µM | > 100 µM | > 100 µM | > 100 µM | > 100 µM | > 100 µM | > 100 µM
15 | CCOC(=O)C(NC(=O)CC(C)C)(N1CCN(c2cc3c(cc2F)c(=O)c(C(=O)O)cn3C2CC2)CC1)C(F)(F)F (centres undefined) | > 100 µM | 47.5 µM | 33.5 µM | 66.7 µM | 68 µM | 40.8 µM | 45.8 µM | 74.1 µM | 30.2 µM | 49.6 µM
16 | c1ccc(/C(=N/Nc2ccccn2)c2ncccn2)cc1 | > 42.7 µM | 6.93 µM | > 37.6 µM | > 44.3 µM | > 100 µM | 5.06 µM | > 27.5 µM | > 20.2 µM | 12.2 µM | 6.27 µM
17 | COc1cc(I)c2c3c1OC1C34CCN(C)C(C2)C4=CC(I)C1(OC)OC (centres undefined) | 46.3 µM | > 100 µM | 54.7 µM | 59 µM | 55.9 µM | 61.5 µM | 40.9 µM | 52.2 µM | 42 µM | 34.7 µM
18 | NC(=O)C(=CNC(=S)c1ccncc1)C(N)=O | > 100 µM | > 100 µM | > 100 µM | > 100 µM | > 100 µM | > 100 µM | > 100 µM | > 100 µM | > 100 µM | > 100 µM
19 | CC(C)(C)c1cc(/C=C(\C#N)C(=O)NCCO)cc(C(C)(C)C)c1O | 49.6 µM | 31.8 µM | 89.7 µM | 33.5 µM | 76.5 µM | > 100 µM | 49.4 µM | 97 µM | 27.5 µM | 49.7 µM

Row | Structure (SMILES) | TGI (HOP-62 NSCLC) | TGI (M14 melanoma) | TGI (NCI-H23 lung) | TGI (OVCAR-3 ovarian) | TGI (OVCAR-4 ovarian) | TGI (SF-268 CNS) | TGI (SR leukemia) | TGI (SW-620 colon) | TGI (UACC-62 melanoma) | TGI (UO-31 renal)
20 | COC1(OC)CCCCC2c3cccc(OC(C)=O)c3C21OC(C)=O (centres undefined) | > 100 µM | > 100 µM | > 100 µM | > 100 µM | > 100 µM | > 100 µM | > 100 µM | > 100 µM | > 100 µM | > 100 µM
21 | c1ccc2c3c(c(N4CCOCC4)nc2c1)CCCC3 | > 100 µM | > 100 µM | > 100 µM | > 100 µM | > 100 µM | > 100 µM | > 100 µM | > 100 µM | > 100 µM | > 100 µM
22 | CCCCc1ccc(Nc2nc3c(ncn3COCCO)c(=O)[nH]2)cc1 | > 100 µM | > 100 µM | > 100 µM | > 100 µM | > 100 µM | > 100 µM | > 100 µM | > 100 µM | > 100 µM | > 100 µM
23 | O=C(Nc1ccccc1C(=O)NCCCO)/C(=C/c1ccccc1O)NC(=O)c1ccccc1 | > 56.5 µM | > 100 µM | > 94.5 µM | > 100 µM | > 100 µM | > 100 µM | > 100 µM | > 100 µM | 60 µM | > 31.6 µM
24 | FC(F)(F)c1ccc2nc3n(c2c1)C(c1c(Cl)cccc1Cl)SC3 (centres undefined) | 29.8 µM | 30.7 µM | 37 µM | 29.4 µM | 30.5 µM | 41.8 µM | 21.4 µM | 34.9 µM | 28.6 µM | 26.8 µM
25 | O=C1NC2OC(CO)C(O)C(O1)C2O (centres undefined) | > 100 µM | > 100 µM | > 100 µM | > 100 µM | > 100 µM | > 100 µM | > 100 µM | > 100 µM | > 100 µM | > 100 µM
26 | Brc1cccc(N=NN2CCCC2)c1 | > 100 µM | > 100 µM | > 100 µM | > 100 µM | > 100 µM | > 100 µM | > 100 µM | > 100 µM | > 100 µM | > 100 µM
27 | COc1ccc2c(c1)CC1=C(O2)c2ccc(OC)cc2OC1 | > 100 µM | 37.3 µM | > 100 µM | 36.4 µM | 90.1 µM | 68.5 µM | > 100 µM | 34.6 µM | 39.2 µM | > 100 µM
28 | COc1cc2c(/C=C3/C(=O)Nc4ccccc43)c(Cl)[nH]c2cc1C | 26.4 µM | 17 µM | 0.879 µM | > 39.9 µM | 21.1 µM | 18.5 µM | 10.1 µM | 59 µM | 15.5 µM | 20.7 µM
29 | COCc1nc2c(OC)cc(-c3nc4ccc(N5CCN(C)CC5)cc4[nH]3)c(OC)c2[nH]1 | > 100 µM | 31.9 µM | > 100 µM | 77.5 µM | > 100 µM | > 100 µM | 54.6 µM | > 100 µM | > 100 µM | > 100 µM
30 | O=c1oc2cc(O)ccc2c(O)c1C(c1ccc(C(c2c(O)c3ccc(O)cc3oc2=O)c2c(O)c3ccc(O)cc3oc2=O)cc1)c1c(O)c2ccc(O)cc2oc1=O | > 100 µM | > 100 µM | > 100 µM | > 100 µM | > 100 µM | > 100 µM | > 100 µM | > 100 µM | > 100 µM | > 100 µM
31 | Brc1ccc2c(-c3csc(-c4c[nH]c5ccc(Br)cc45)n3)c[nH]c2c1 | 27.1 µM | 13.3 µM | 14.2 µM | 23.2 µM | 23.9 µM | 13.2 µM | > 100 µM | 28.3 µM | 9.2 µM | 14.4 µM
32 | COc1cc(CN2CCCCC2)cc2cc(C(=O)O)c(=O)oc12 | > 100 µM | > 100 µM | > 100 µM | > 100 µM | > 100 µM | > 100 µM | > 100 µM | > 100 µM | > 100 µM | > 100 µM
33 | Brc1ccc2c(-c3csc(-c4c[nH]c5cc(Br)ccc45)n3)c[nH]c2c1 | > 100 µM | > 56.5 µM | 53.2 µM | > 100 µM | 97.7 µM | > 100 µM | > 41 µM | 66.5 µM | > 100 µM | > 100 µM
34 | O=c1c2ccccc2nc(Nc2cccc(Cl)c2)n1/N=C/C=C/c1ccccc1 | > 100 µM | > 100 µM | > 100 µM | > 100 µM | > 100 µM | > 100 µM | > 100 µM | > 100 µM | > 100 µM | > 100 µM
35 | Cc1nn(-c2cc(Cl)ccc2[N+](=O)[O-])c(C)c1Cl | > 100 µM | > 100 µM | > 100 µM | > 100 µM | > 100 µM | > 100 µM | > 100 µM | > 100 µM | > 100 µM | > 100 µM
36 | Cn1c([O-])nc(-n2cc[n+](C)c2)cc1=O | > 100 µM | > 100 µM | > 100 µM | > 100 µM | > 100 µM | > 100 µM | > 100 µM | > 100 µM | > 100 µM | > 100 µM
37 | CC1(C)C=C(S(=O)(=O)c2ccccc2)Oc2ccccc2O1 | > 100 µM | > 100 µM | > 100 µM | > 100 µM | > 100 µM | > 100 µM | > 100 µM | > 100 µM | > 100 µM | 86.2 µM
